Patent US20150181881A1, “METHODS FOR CONTROLLING FUNGAL DISEASES IN MUSHROOM PRODUCTION” (DSM IP ASSETS B.V., priority 2012, published 2015)

Legend:
Trichoderma harzianum = assay: In vitro antifungal activity in 96-well microtiter plates against Trichoderma harzianum; assay type: cell-based
Procedure: Subsequently, 100 μl of a Verticillium fungicola suspension prepared in PCB medium is used to inoculate each well with 5.0×10^3 spores/ml.
, the in vitro antifungal activity (%) of the individual active ingredients was assessed by calculating the reduction in mould growth observed in the presence of the active ingredient in comparison to the mould growth observed in the absence of the active ingredient. The expected antifungal activity (E in %) of the active ingredient combination was calculated according to the Colby equation (Colby, 1967): […]
wherein X and Y are the observed antifungal activities (in %) of the individual active ingredients X and Y, respectively. If the observed antifungal activity (O in %) of the combination exceeds the expected antifungal activity (E in %) of the combination and the resulting synergy factor O/E is thus >1.0, the combined application of the active ingredients leads to a synergistic antifungal effect.
Furthermore, Trichoderma harzianum was used for inoculation.

Verticillium fungicola = assay: In vitro antifungal activity in 96-well microtiter plates against Verticillium fungicola; assay type: cell-based
Procedure: The following compositions are tested: • Control (no active ingredient), • 1.25 or 2.5 ppm natamycin (DSM Food Specialties, Delft, The Netherlands), • 0.5 ppm chlorothalonil, • 1.25 ppm natamycin+0.5 ppm chlorothalonil, • 2.5 ppm natamycin+0.5 ppm chlorothalonil. […] Subsequently, 100 μl of a Verticillium fungicola suspension prepared in PCB medium is used to inoculate each well with 5.0×10^3 spores/ml. […] After incubation of the microtiter plates for 3 and 5 days at 25° C., the in vitro antifungal activity (%) of the individual active ingredients was assessed by calculating the reduction in mould growth observed in the presence of the active ingredient in comparison to the mould growth observed in the absence of the active ingredient. The expected antifungal activity (E in %) of the active ingredient combination was calculated according to the Colby equation (Colby, 1967): […] wherein X and Y are the observed antifungal activities (in %) of the individual active ingredients X and Y, respectively.

[1] = Chlorothalonil 0.5 ppm, incubation 5 days at 25° C.

Measured: Observed antifungal activity O (%)

N#Cc1c(Cl)c(Cl)c(Cl)c(C#N)c1Cl [Chlorothalonil, 2,4,5,6-tetrachloroisophthalonitrile]
0%: Trichoderma harzianum; [1] | Trichoderma harzianum; Chlorothalonil 1.0 ppm, incubation 10 days at 25° C. | Trichoderma harzianum; Chlorothalonil 1.0 ppm, incubation 17 days at 25° C. | Trichoderma harzianum; Chlorothalonil 1.5 ppm, incubation 17 days at 25° C. | Verticillium fungicola; Chlorothalonil 0.5 ppm, incubation 3 days at 25° C. | Verticillium fungicola; [1]

C[C@@H]1C/C=C/C=C/C=C/C=C/[C@H](O[C@@H]2O[C@H](C)[C@@H](O)[C@H](N)[C@@H]2O)C[C@@H]2O[C@](O)(C[C@@H](O)C[C@H]3O[C@@H]3/C=C/C(=O)O1)C[C@H](O)[C@H]2C(=O)O [Natamycin, natamycin]
0%: Trichoderma harzianum; Natamycin 1.25 ppm, incubation 5 days at 25° C. | Trichoderma harzianum; Natamycin 1.25 ppm, incubation 10 days at 25° C. | Trichoderma harzianum; Natamycin 1.25 ppm, incubation 17 days at 25° C. | Trichoderma harzianum; Natamycin 2.5 ppm, incubation 17 days at 25° C. | Verticillium fungicola; Natamycin 1.25 ppm, incubation 3 days at 25° C. | Verticillium fungicola; Natamycin 2.5 ppm, incubation 5 days at 25° C.
